Data published in US12264352B2, “Method for enhancing extracellular vesicle production” (Research Foundation of the City University of New York, priority 2016, dated 2025).
Non-standard residues stand in square brackets, D forms with d. Residues, ends and D or L forms follow the SMILES beside them. *: point of attachment. Acetyl(2-naphthyl) = O=C(Cc1ccc2ccccc2c1)*; pY = N[C@@H](Cc1ccc(OP(=O)(O)O)cc1)C(=O)O; NBD = O=[N+]([O-])c1ccc(*)c2nonc12

Assays:
[1] = tested on: MDA-MB231 breast cancer cells; experiment: Cell death of the cells used for EV production at high peptide concentration; format: cell-based; settings: the particular cells used for EV production
Description: The NTA can also determine the average diameter of released EVs. While the increase of polymer concentration in parental cells increases the number of released EVs, the size of EVs is constant regardless of the polypeptide concentration in parental cells (FIG. 3B, FIG. 3C, FIG. 3D, FIG. 3E). The increased number of released EVs can also be confirmed by the increase of fluorescence intensity of collected EVs (FIG. 3F), measured by fluorescence spectrometer. […] In one embodiment, production is enhanced by at least 50% relative to the control. […] The particular cells used experienced cell death at concentrations above 500 μM of NapFFKYp-NBD. Alternative upper limits may be possible for other cell line and other polypeptide precursors.

[2] = tested on: MB231, HT1080, MB231-4175; experiment: Cell tests (toxicity/viability) for various cell types at 0-200 μM peptide after 60 min of incubation; format: cell-based; settings: in general, toxicity depends on cell type; 60 min incubation; FIG. 5A
Method: As shown in FIG. 5A toxicity depends on the cell type, however in general cells are viable under 100 μM of peptide incubation (NapFFK(NBD)Yp). […] Thus, EV generation can be amplified as low as 5 μM of peptide incubation and shorter times to be effective.

In the case of O=C(Cc1ccc2ccccc2c1)N[C@@H](Cc1ccccc1)C(=O)N[C@@H](Cc1ccccc1)C(=O)N[C@@H](CCCCNc1ccc([N+](=O)[O-])c2nonc12)C(=O)N[C@@H](Cc1ccc(OP(=O)(O)O)cc1)C(=O)O [NapFFK(NBD)Yp] ({Acetyl(2-naphthyl)}-FFK(NBD)[pY]-OH), the “concentration above which cells experienced cell death” value [1] is reported as “above 500 μM” and the “peptide concentration under which cells are viable” value [2] is reported as “under 100 μM”.
